# Results taken from US9562043B2 (EA Pharma Co., Ltd., priority 2012, dated 2017).
# Target: T1, human TRPA1 (Homo sapiens, UniProt O75762)
# T1 construct: host or cells: human embryonic kidney-derived 293T cells, transient transfection with pcDNA3.1/zeo(+) plasmid
# Experiment: Measurement of TRPA1 antagonist activity (intracellular calcium increase, FLIPR)
# Assay type: cell-based
# Details: 293T cells transfected with human TRPA1 expression plasmid, allylisothiocyanate 20 μM stimulation, calcium fluorescence, read-out: antagonism hTRPA1
# Description: Measurement of TRPA1 Antagonist Activity
# Human TRPA1 Expression Plasmid
# As cDNA encoding human TRPA1 (GenBank accession No. […]), a commercially available product was purchased (manufactured by Kazusa DNA Research Institute, clone No.: pFN21AB7348, item No.: FHC07217). Using this as a template, full-length human TRPA1 gene was amplified using the primer sequences shown below, by reaction using DNA polymerase (manufactured by Stratagene, trade name: PfuUltra High-Fidelity DNA Polymerase).
# A recognition site (underlined) of restriction enzyme HindIII was added to the 5′ side, and XbaI site (underlined) was added to the 3′ side, and GTT of the template sequence was changed to termination codon TAG (bold). The obtained double stranded DNA was enzyme-digested with HindIII and XbaI, and introduced into a multicloning site of expression plasmid pcDNA3.1/zeo(+) (manufactured by Invitrogen) to give a human TRPA1 expression plasmid.
# Human embryonic kidney-derived 293T cells were cultured in Dulbecco's Modified Eagle Medium containing 10% fetal bovine serum, 10 unit penicillin, and 10 μg streptomycin, plated on a petri dish having a diameter of 10 cm at 3×10^6 cells, and cultured for 24 hr. A medium containing a reduced amount of serum (manufactured by Invitrogen, trade name: OPTI-MEM, 600 μL), a gene insertion reagent (manufactured by Mirus Bio, trade name: Mirus TransIT-293, 18 μL), and human TRPA1 expression plasmid (6 μg) were mixed, the total amount of the mixture was added to the cells on the petri dish to allow for gene transfer. The cells were recovered about 8 hr later, plated on a poly-D-lysine coated 384 well black/clear bottom plate at 7,500-12,000 cells/well, and cultured overnight.
# Measurement of Intracellular Calcium Increase
# The 384 well plate was recovered, and the medium was removed. A calcium-bonded fluorescent indicator (manufactured by Molecular Device, trade name: Calcium4 Assay Kit, 40 μL) dissolved in assay buffer (1×HBSS, 20 mM HEPES, pH 7.2) was added, and the cells were stained in a 37° C. incubator for 1 hr. The cells were taken out at room temperature and left standing for 15 min or more. A test substance (10 μL) was added by a 384 well type dispenser, and the mixture was incubated at room temperature for 10 min. Then, allylisothiocyanate (12.5 μL) at a final concentration of 20 μM was added by a fluorescence imaging plate reader (manufactured by Molecular Device, FLIPR), and changes in the relative fluorescence intensity were measured for 5 min.
# Test Substance Preparation
# The test substance was dissolved in dimethyl sulfoxide and serially diluted with an assay buffer containing 0.1% bovine serum albumin (1×HBSS, 20 mM HEPES, pH 7.2) to a 5-fold concentration of the evaluation concentration. Allylisothiocyanate, which is a known TRPA1 activator, was dissolved in dimethyl sulfoxide to 100 mM, and further diluted 5-fold (100 μM) of the final concentration, like the test substance.
# Calculation of Antagonist Activity
# Under the test substance-free conditions, the maximum variation range of the fluorescence intensity before and after allylisothiocyanate stimulation was defined to be 100% activity rate, and the variation range before and after buffer stimulation was defined as 0% activity rate. The activity rate on addition of the test substance was determined, and the numerical value obtained by subtracting the activity rate from 100 was defined to be an inhibitory rate. IC50, which is the concentration of the test substance necessary for reaching the 50% inhibitory rate, was calculated from the sigmoid approximate curve by a spreadsheet software Excel-Fit.
# T1 sequence (O75762 whole entry): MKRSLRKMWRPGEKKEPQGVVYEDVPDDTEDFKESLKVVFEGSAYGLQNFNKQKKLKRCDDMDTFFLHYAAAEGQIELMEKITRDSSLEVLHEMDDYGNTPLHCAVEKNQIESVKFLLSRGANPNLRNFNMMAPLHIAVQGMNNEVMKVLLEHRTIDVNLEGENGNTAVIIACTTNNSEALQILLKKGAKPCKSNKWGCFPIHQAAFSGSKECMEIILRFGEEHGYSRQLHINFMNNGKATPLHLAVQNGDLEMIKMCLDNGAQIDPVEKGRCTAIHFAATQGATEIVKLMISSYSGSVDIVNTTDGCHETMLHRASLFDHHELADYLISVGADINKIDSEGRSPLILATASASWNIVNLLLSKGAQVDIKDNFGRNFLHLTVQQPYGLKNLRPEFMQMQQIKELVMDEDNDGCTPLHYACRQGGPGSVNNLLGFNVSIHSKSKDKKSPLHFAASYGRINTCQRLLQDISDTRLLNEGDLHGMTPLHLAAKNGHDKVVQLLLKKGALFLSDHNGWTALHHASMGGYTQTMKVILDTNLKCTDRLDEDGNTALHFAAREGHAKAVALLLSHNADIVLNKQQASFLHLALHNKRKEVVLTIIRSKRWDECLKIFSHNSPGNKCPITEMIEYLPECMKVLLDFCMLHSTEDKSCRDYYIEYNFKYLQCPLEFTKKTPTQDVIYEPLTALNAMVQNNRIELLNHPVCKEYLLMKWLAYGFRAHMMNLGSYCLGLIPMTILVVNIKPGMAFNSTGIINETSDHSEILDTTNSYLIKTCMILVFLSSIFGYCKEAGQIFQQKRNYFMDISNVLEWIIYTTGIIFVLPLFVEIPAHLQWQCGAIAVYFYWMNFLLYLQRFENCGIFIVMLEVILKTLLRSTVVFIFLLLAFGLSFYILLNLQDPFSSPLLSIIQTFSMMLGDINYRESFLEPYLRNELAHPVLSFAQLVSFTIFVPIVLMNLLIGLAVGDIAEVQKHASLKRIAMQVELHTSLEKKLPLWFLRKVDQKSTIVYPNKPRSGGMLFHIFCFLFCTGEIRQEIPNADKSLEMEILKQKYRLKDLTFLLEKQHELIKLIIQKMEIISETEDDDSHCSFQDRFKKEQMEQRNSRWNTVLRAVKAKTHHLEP
row,SMILES,IC50
1,"O=C(NCc1nc(-c2ccc(Cl)cc2)cs1)[C@@H]1CCCN1S(=O)(=O)c1ccc(Cl)s1 [compound 2, (2S)-1-(5-chlorothiophene-2-sulfonyl)-N-{[4-(4-chlorophenyl)thiazol-2-yl]methyl}pyrrolidine-2-carboxamide]",670 nM
2,"O=C(NCc1nc(-c2ccc(OC(F)(F)F)cc2)cs1)[C@@H]1CCCN1S(=O)(=O)c1ccc(Cl)s1 [compound 3, (2S)-1-(5-chlorothiophene-2-sulfonyl)-N-({4-[4-(trifluoromethoxy)phenyl]-thiazol-2-yl}methyl)-pyrrolidine-2-carboxamide]",160 nM
3,"O=C(NCc1nc(-c2ccccc2)cs1)[C@@H]1CCCN1S(=O)(=O)c1ccc(Cl)s1 [compound 4, (2S)-1-(5-chlorothiophene-2-sulfonyl)-N-{(4-phenylthiazol-2-yl)methyl}pyrrolidine-2-carboxamide]",760 nM
4,"Cc1ccc(-c2csc(CNC(=O)[C@@H]3CCCN3S(=O)(=O)c3ccc(Cl)s3)n2)cc1 [compound 5, (2S)-1-(5-chlorothiophene-2-sulfonyl)-N-{[4-(4-methylphenyl)thiazol-2-yl]methyl}pyrrolidine-2-carboxamide]",580 nM
5,"O=C(NCc1nc(-c2cccc(C(F)(F)F)c2)cs1)[C@@H]1CCCN1S(=O)(=O)c1ccc(Cl)s1 [compound 6, (2S)-1-(5-chlorothiophene-2-sulfonyl)-N-({4-[3-(trifluoromethyl)phenyl]-thiazol-2-yl}methyl)-pyrrolidine-2-carboxamide]",840 nM
6,"O=C(NCc1nc(-c2cccc(F)c2)cs1)[C@@H]1CCCN1S(=O)(=O)c1ccc(Cl)s1 [compound 7, (2S)-1-(5-chlorothiophene-2-sulfonyl)-N-{[4-(3-fluorophenyl)thiazol-2-yl]methyl}pyrrolidine-2-carboxamide]",430 nM
7,"O=C(NCc1nc(-c2ccc(OC(F)(F)F)c(F)c2)cs1)[C@@H]1CCCN1S(=O)(=O)c1ccc(Cl)s1 [compound 8, (2S)-1-(5-chlorothiophene-2-sulfonyl)-N-({4-[3-fluoro-4-(trifluoromethoxy)-phenyl]thiazol-2-yl}methyl)-pyrrolidine-2-carboxamide]",170 nM
8,"Cc1sc(CNC(=O)[C@@H]2CCCN2S(=O)(=O)c2ccc(Cl)s2)nc1-c1ccc(C(F)(F)F)cc1 [compound 9, (2S)-1-(5-chlorothiophene-2-sulfonyl)-N-({5-methyl-4-[4-(trifluoromethyl)phenyl]-thiazol-2-yl}methyl)-pyrrolidine-2-carboxamide]",150 nM
9,"C[C@H](NC(=O)[C@@H]1CCCN1S(=O)(=O)c1ccc(Cl)s1)c1nc(-c2ccc(C(F)(F)F)cc2)cs1 [compound 10, (2S)-1-(5-chlorothiophene-2-sulfonyl)-N-[(1S)-1-{4-[4-(trifluoromethyl)phenyl]-thiazol-2-yl}ethyl]-pyrrolidine-2-carboxamide]",320 nM
10,"C[C@H](NC(=O)[C@@H]1CCCN1S(=O)(=O)c1ccc(Cl)s1)c1nc(-c2ccc(OC(F)(F)F)cc2)cs1 [compound 11, (2S)-1-(5-chlorothiophene-2-sulfonyl)-N-[(1S)-1-{4-(4-(trifluoromethoxy)phenyl]-thiazol-2-yl}ethyl]-pyrrolidine-2-carboxamide]",480 nM
11,"O=C(NCc1nc(-c2ccc(C(F)(F)F)cc2)co1)[C@@H]1CCCN1S(=O)(=O)c1ccc(Cl)s1 [compound 12, (2S)-1-(5-chlorothiophene-2-sulfonyl)-N-({4-(4-(trifluoromethyl)phenyl]-oxazol-2-yl}methyl)-pyrrolidine-2-carboxamide]",300 nM
12,"O=C(NCc1nc(-c2ccc(OC(F)(F)F)cc2)co1)[C@@H]1CCCN1S(=O)(=O)c1ccc(Cl)s1 [compound 13, (2S)-1-(5-chlorothiophene-2-sulfonyl)-N-({4-[4-(trifluoromethoxy)phenyl]-oxazol-2-yl}methyl)-pyrrolidine-2-carboxamide]",120 nM
13,"O=C(NCc1csc(-c2ccc(C(F)(F)F)cc2)n1)[C@@H]1CCCN1S(=O)(=O)c1ccc(Cl)s1 [compound 14, (2S)-1-(5-chlorothiophene-2-sulfonyl)-N-({2-[4-(trifluoromethyl)phenyl]-thiazol-4-yl}methyl)-pyrrolidine-2-carboxamide]",200 nM
14,"O=C(NCc1nc(-c2ccc(C(F)(F)F)cc2)no1)[C@@H]1CCCN1S(=O)(=O)c1ccc(Cl)s1 [compound 15, (2S)-1-(5-chlorothiophene-2-sulfonyl)-N-({3-[4-(trifluoromethyl)phenyl]-1,2,4-oxadiazol-5-yl}methyl)pyrrolidine-2-carboxamide]",240 nM
15,"O=C(NCc1nc(-c2ccc(C(F)(F)F)cc2)c[nH]1)[C@@H]1CCCN1S(=O)(=O)c1ccc(Cl)s1 [compound 16, (2S)-1-(5-chlorothiophene-2-sulfonyl)-N-({4-[4-(trifluoromethyl)phenyl]-imidazol-2-yl}methyl)-pyrrolidine-2-carboxamide]",5840 nM
16,"Cc1cc(CNC(=O)[C@@H]2CCCN2S(=O)(=O)c2ccc(Cl)s2)nn1-c1ccc(Cl)cc1 [compound 17, (2S)-1-(5-chlorothiophene-2-sulfonyl)-N-{[1-(4-chlorophenyl)-5-methylpyrazol-3-yl]methyl)pyrrolidine-2-carboxamide]",4440 nM
17,"O=C(NCc1nc(-c2ccc(C(F)(F)F)cc2)cs1)[C@@H]1C=CCN1S(=O)(=O)c1ccc(Cl)s1 [compound 18, (2S)-1-(5-chlorothiophene-2-sulfonyl)-N-({4-[4-{trifluoromethyl)phenyl]-thiazol-2-yl}methyl)-3,4-didehydropyrrolidine-2-carboxamide]",170 nM
18,"O=C(NCc1nc(-c2ccc(Cl)cc2)cs1)[C@@H]1C=CCN1S(=O)(=O)c1ccc(Cl)s1 [compound 19, (2S)-1-(5-chlorothiophene-2-sulfonyl)-N-({4-[4-(chloro)phenyl]thiazol-2-yl}methyl)-3,4-didehydropyrrolidine-2-carboxamide]",560 nM
19,"O=C(NCc1nc(-c2cccc(C(F)(F)F)c2)cs1)[C@@H]1C=CCN1S(=O)(=O)c1ccc(Cl)s1 [compound 21, (2S)-1-(5-chlorothiophene-2-sulfonyl)-N-({4-[3-(trifluoromethyl)phenyl]-thiazol-2-yl}methyl)-3,4-didehydropyrrolidine-2-carboxamide]",710 nM
20,"O=C(NCc1nc(-c2ccc(OC(F)(F)F)c(F)c2)cs1)[C@@H]1C=CCN1S(=O)(=O)c1ccc(Cl)s1 [compound 22, (2S)-1-(5-chlorothiophene-2-sulfonyl)-N-({4-[3-fluoro-4-(trifluoromethoxy)phenyl]-thiazol-2-yl}methyl)-3,4-didehydropyrrolidine-2-carboxamide]",110 nM
21,"Cc1sc(CNC(=O)[C@@H]2C=CCN2S(=O)(=O)c2ccc(Cl)s2)nc1-c1ccc(C(F)(F)F)cc1 [compound 23, (2S)-1-(5-chlorothiophene-2-sulfonyl)-N-({5-methyl-4-[4-(trifluoromethyl)phenyl]-thiazol-2-yl}methyl)-3,4-didehydropyrrolidine-2-carboxamide]",140 nM
22,"C[C@H](NC(=O)[C@@H]1C=CCN1S(=O)(=O)c1ccc(Cl)s1)c1nc(-c2ccc(C(F)(F)F)cc2)cs1 [compound 24, (2S)-1-(5-chlorothiophene-2-sulfonyl)-N-[(1S)-1-{4-[4 (trifluoromethyl)phenyl]-thiazol-2-yl)ethyl]-3,4-didehydropyrrolidine-2-carboxamide]",470 nM
23,"O=C(NCc1nc(-c2ccc(C(F)(F)F)cc2)co1)[C@@H]1C=CCN1S(=O)(=O)c1ccc(Cl)s1 [compound 25, (2S)-1-(5-chlorothiophene-2-3ulfonyl)-N-({4-[4-(trifluoromethyl)phenyl]-oxazol-2-yl}methyl)-3,4-didehydropyrrolidine-2-carboxamide]",260 nM
